{
  "source": "patent US5885782A",
  "about": "“Synthetic antibiotics” (priority 1997, dated 1999)",
  "key": {"[1]": {"system": "Fusarum oxysporum f. sp. lycopersici race 1, strain RMI", "experiment": "Checkerboard combination of peptide with antifungal agent (Limpel method), Fusarium", "assay_type": "cell-based, Fusarium oxysporum", "design": "key to Expected Inhibition (Limpel formula): expected % inhibition, Ec = X + Y - XY/100 (Limpel)", "protocol": "(§1) Antimicrobial peptides were mixed with known antifungal compounds according to the checkerboard method of Eliopoulos and Moellering, 1991 and the effect of these mixtures was determined.\n(§2) The checkerboard method requires serial dilutions of two antimicrobial compounds in concentration ranges spanning the minimal inhibitory concentrations (MICs) of the compounds. Synergism, antagonism, or additivity of the drug combinations was by measured by determining the antimicrobial effect of the various dilutions of the two drugs. Synergism existed when the antimicrobial effect of a mixture was greater than the sum of the independent antimicrobial effects of its combined components. Additivity was indicated when the antimicrobial effect of a drug combination was simply the sum of the independent antimicrobial effects. Antagonism existed when the antimicrobial effect of a mixture of drugs was less than the sum of the independent antimicrobial effects of the separate drugs.\nFrozen glycerol stocks of F. oxysporum f. sp. lycopersici microconidia were used for the bioassays. Microconidia or spores were thawed on ice, washed 2× in PDB, and diluted in 2× PDB to obtain the appropriate inoculum concentration for the assay. The 2× PDB was employed for the dilutions to obtain a final concentration of I× PDB in each test well. Microtiter plates were incubated without shaking, in the dark, at 250 C. Absorbance readings were recorded at 24 hr intervals for 72 h. To follow growth in the microtiter plates, an EMAX PRECISION MICROPLATE READER (Molecular Devices Corp., Menlo Park, Calif.) attached to a HEWLETT-PACKARD THINK-JET (Hewlett-Packard Company, Vancouver, Wash.) printer was used to obtain the absorbance (at 595 run) readings. All test combinations were performed in triplicate. Sterile, disposable, flat bottom, polystyrene, 96~well (with lid) microtiter plates (Corning Glass Works, Scientific Products Division, Corning, N.Y.) were used to conduct the assays. The initial concentration of peptide FRLKFH-NH2 (Seq. ID No.34), peptide FRLKFHI-NH2 (Seq. ID No.40), nystatin (5.13 units/ug), and miconazole used in the assay series were 26, 60, 88, and 60 ug/ml, respectively. The checkerboard was setup as described by Eliopoulos and Moellering, 1991. Once the checkerboard mixtures were prepared 50 ul of inoculum […] was added to each of the wells. F. oxysporum f. sp. lycopersici microconidia were produced using FLC medium. Esposito, R. and Fletcher, A. M. 1961. A 4 mm square of an actively growing culture was taken from PDA to 50 ml of FLC broth in a sterile 250 ml screwcap flask. The culture was incubated with shaking […] at 250 C. After 96 h, the slurry of mycelia and microconidia was filtered twice through 3 layers of sterile cheesecloth to obtain the microconidial suspension. The microconidial suspension was adjusted to a concentration of 1-5×10^7 microconidial/ml using a Brightlme hemacytometer (Hausser Scientific, Horsham, Pa.) and stored frozen in I ml aliquots in 20% sterile glycerol at -80C.\n(§3) Synergism between known antifungal compounds and antifungal peptides was also studied using the method of Limpel as described by Richer. Richer, D. L. 1987. The methodology of Limpel is described by the equation: […]\n(§4) Where Ec is the expected additive effect of two antifungal agents, X is the observed percentage inhibition of the test organism when antifungal agent A is applied alone at the rate used in the mixture, and Y is the observed percentage inhibition of the test organism when antifungal agent B is used alone at the rate used in the mixture. […] Richer, D. L. 1987.\n(§5) Experimental studies were set up using the checkerboard method as described by Eliopoulos and Moellering, 1991. The observed inhibitory effects of the antifungal agent and peptide combinations were measured as described above and compared with Ec as calculated from the Limpel formula."}, "[2]": {"system": "Aspergillus fumigatus", "experiment": "Checkerboard combination of peptide with antifungal agent (Limpel method), Aspergillus fumigatus", "assay_type": "cell-based", "protocol": "as §1, §2, §3, §4, §5"}, "[3]": {"system": "Aspergillus paraciticus", "experiment": "Checkerboard combination of peptide with antifungal agent (Limpel method), Aspergillus paraciticus", "assay_type": "cell-based", "protocol": "as §1, §2, §3, §4, §5"}, "[4]": {"details": "Nystatin 0.3 ug/ml, Peptide 0 ug/ml"}, "[5]": {"details": "Nystatin 0.6 ug/ml, Peptide 0 ug/ml"}, "[6]": {"details": "Nystatin 1.3 ug/ml, Peptide 0 ug/ml"}, "[7]": {"details": "Nystatin 2.5 ug/ml, Peptide 0 ug/ml"}, "[8]": {"details": "Nystatin 5 ug/ml, Peptide 0 ug/ml"}, "[9]": {"details": "Nystatin 10 ug/ml, Peptide 0 ug/ml"}, "[10]": {"details": "Nystatin 20 ug/ml, Peptide 0 ug/ml"}, "[11]": {"details": "Nystatin 0 ug/ml, Peptide 0.6 ug/ml"}, "[12]": {"details": "Nystatin 0 ug/ml, Peptide 1.3 ug/ml"}, "[13]": {"details": "Nystatin 0 ug/ml, Peptide 2.5 ug/ml"}, "[14]": {"details": "Nystatin 0 ug/ml, Peptide 5 ug/ml"}},
  "data": [
    {"compound": "C[C@@H]1[C@H](O)[C@@H](C)/C=C/C=C/CC/C=C/C=C/C=C/C=C/C(O[C@H]2O[C@H](C)[C@@H](O)[C@H](N)[C@@H]2O)CC2O[C@](O)(CC(O)C(O)CCC(O)CC(O)CC(O)CC(=O)O[C@H]1C)CC(O)C2C(=O)O", "note": "(stereo partly drawn) [Nystatin, nystatin]", "values": [
      {"measurement": "Expected Inhibition (Limpel formula)", "setting": "[1]; [4]", "value": 6.0},
      {"measurement": "Observed Inhibition (percentage inhibition)", "setting": "[1]; [4]", "value": 6.0},
      {"measurement": "Expected Inhibition (Limpel formula)", "setting": "[1]; [5]", "value": 3.0},
      {"measurement": "Observed Inhibition (percentage inhibition)", "setting": "[1]; [5]", "value": 3.0},
      {"measurement": "Expected Inhibition (Limpel formula)", "setting": "[1]; [6]", "value": 4.0},
      {"measurement": "Observed Inhibition (percentage inhibition)", "setting": "[1]; [6]", "value": 4.0},
      {"measurement": "Expected Inhibition (Limpel formula)", "setting": "[1]; [7]", "value": 1.0},
      {"measurement": "Observed Inhibition (percentage inhibition)", "setting": "[1]; [7]", "value": 1.0},
      {"measurement": "Expected Inhibition (Limpel formula)", "setting": "[1]; [8]", "value": 16.0},
      {"measurement": "Observed Inhibition (percentage inhibition)", "setting": "[1]; [8]", "value": 16.0},
      {"measurement": "Expected Inhibition (Limpel formula)", "setting": "[1]; [9]", "value": 100.0},
      {"measurement": "Observed Inhibition (percentage inhibition)", "setting": "[1]; [9]", "value": 100.0},
      {"measurement": "Expected Inhibition (Limpel formula)", "setting": "[1]; [10]", "value": 100.0},
      {"measurement": "Observed Inhibition (percentage inhibition)", "setting": "[1]; [10]", "value": 100.0}
    ]},
    {"compound": "FRLKFH: D-amino acid hexapeptide FRLKFH-NH2", "values": [
      {"measurement": "interaction with amphotericin B (observed vs expected inhibition)", "setting": "[1]; peptide 5.0-10.0 ug/ml, amphotericin B 0.3-2.0 ug/ml, Fusarium oxysporum, Table XVI", "value": "synergism"},
      {"measurement": "interaction with nystatin (observed vs expected inhibition)", "setting": "[2]; peptide 4.4-7.5 ug/ml, nystatin 0.6-2.5 ug/ml, Table XXII", "value": "synergism"},
      {"measurement": "interaction with miconazole (observed vs expected inhibition)", "setting": "[2]; peptide 17.5-70 ug/ml, miconazole 0.3-2.0 ug/ml, Table XX", "value": "synergism"}
    ]},
    {"compound": "FRLKFHF [D-amino acid heptapeptide FRLKFHF-NH2]", "values": [
      {"measurement": "interaction with amphotericin B (observed vs expected inhibition)", "setting": "[3]; peptide 2.5-10 ug/ml, amphotericin B 0.2-0.6 ug/ml, Table XXIV", "value": "synergism"},
      {"measurement": "interaction with nystatin (observed vs expected inhibition)", "setting": "[3]; peptide 2.5-10 ug/ml, nystatin 0.3-5.0 ug/ml, Table XXVI", "value": "synergism"},
      {"measurement": "interaction with fluconazole (observed vs expected inhibition)", "setting": "[3]; peptide 2.5-20 ug/ml, fluconazole 7.5-120 ug/ml, Table XXV", "value": "synergism"},
      {"measurement": "Expected Inhibition (Limpel formula)", "setting": "[1]; [11]", "value": 2.0},
      {"measurement": "Observed Inhibition (percentage inhibition)", "setting": "[1]; [11]", "value": 2.0},
      {"measurement": "Expected Inhibition (Limpel formula)", "setting": "[1]; [12]", "value": 0.0},
      {"measurement": "Observed Inhibition (percentage inhibition)", "setting": "[1]; [12]", "value": 0.0},
      {"measurement": "Expected Inhibition (Limpel formula)", "setting": "[1]; [13]", "value": 13.0},
      {"measurement": "Observed Inhibition (percentage inhibition)", "setting": "[1]; [13]", "value": 13.0},
      {"measurement": "Expected Inhibition (Limpel formula)", "setting": "[1]; [14]", "value": 29.0},
      {"measurement": "Observed Inhibition (percentage inhibition)", "setting": "[1]; [14]", "value": 29.0},
      {"measurement": "interaction with nystatin (observed vs expected inhibition)", "setting": "[1]; nystatin 0.3-5 ug/ml, peptide 0.6-5 ug/ml, Fusarium oxysporum, Table XIV", "value": "synergism"},
      {"measurement": "interaction with miconazole (observed vs expected inhibition)", "setting": "[1]; peptide 1.3-5.0 ug/ml, miconazole 0.6-20 ug/ml, Fusarium oxysporum, Table XVII", "value": "synergism"},
      {"measurement": "interaction with fluconazole (observed vs expected inhibition)", "setting": "[2]; peptide 1.3-20.0 ug/ml, fluconazole 29-230 ug/ml, Table XVIII", "value": "synergism"}
    ]},
    {"compound": "FRLKFHI [D- amino acid heptapeptide FRLKFHI-NH2]", "values": [
      {"measurement": "interaction with miconazole (observed vs expected inhibition)", "setting": "[3]; peptide 3.8-60 ug/ml, miconazole 0.2-1.3 ug/ml, Table XXIII", "value": "synergism"},
      {"measurement": "interaction with amphotericin B (observed vs expected inhibition)", "setting": "[1]; peptide 0.9-7.0 ug/ml, amphotericin B 0.9-7.5 ug/ml, Fusarium oxysporum, Table XV", "value": "synergism"},
      {"measurement": "interaction with fluconazole (observed vs expected inhibition)", "setting": "[1]; peptide 1.3-20 ug/ml, fluconazole 28.7-229.5 ug/ml, Fusarium oxysporum, Table XXVII", "value": "synergism"},
      {"measurement": "interaction with miconazole (observed vs expected inhibition)", "setting": "[2]; peptide 1.340 ug/ml, miconazole 0.5-2.0 ug/ml, Table XIX", "value": "synergism"},
      {"measurement": "interaction with fluconazole (observed vs expected inhibition)", "setting": "[2]; peptide 1.3-20 ug/ml, fluconazole 28.7-229.5 ug/ml, Table XXI", "value": "synergism"}
    ]}
  ]
}
